What follows are compounds tested against T1, human PAH with the R408W mutation (A375 R408W cells) (Homo sapiens, UniProt P00439, R408W) (assay: Cell Based Phenylalanine Flux Assay). Conditions: A375 R408W cells; 24 hrs with compound, then 20 μM sepiapterin and 800 μM 13C9,15N-Phenylalanine for 4 hours; 13C-Tyrosine by LC-MS; average where tested multiple times.
T1 construct: expressed in transfected cells
T1 sequence (P00439 1-452 R408W): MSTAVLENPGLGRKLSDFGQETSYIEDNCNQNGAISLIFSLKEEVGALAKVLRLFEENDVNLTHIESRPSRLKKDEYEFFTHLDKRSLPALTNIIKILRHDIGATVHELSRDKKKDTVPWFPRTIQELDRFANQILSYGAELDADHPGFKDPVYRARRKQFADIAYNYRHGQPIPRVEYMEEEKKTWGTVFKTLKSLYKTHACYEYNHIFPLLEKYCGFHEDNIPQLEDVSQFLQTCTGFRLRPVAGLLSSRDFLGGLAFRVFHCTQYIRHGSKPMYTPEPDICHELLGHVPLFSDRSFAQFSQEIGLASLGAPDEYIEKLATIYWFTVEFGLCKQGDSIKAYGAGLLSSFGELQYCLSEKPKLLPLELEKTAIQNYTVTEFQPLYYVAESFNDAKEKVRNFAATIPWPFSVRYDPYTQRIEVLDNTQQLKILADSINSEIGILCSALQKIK
In short: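 AC50 is derived from LC-MS of 13C-tyrosine in the media after a 4 h pulse of 800 μM 13C9,15N-phenylalanine plus 20 μM sepiapterin. The A375 R408W PAH cells had received duplicate 10-point, 2-fold compound dilutions (0.5% DMSO) for 24 h beforehand.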

Structure (SMILES) | AC50 [nM]
O=C(CC1CC1)N1CCc2[nH]cnc2[C@@H]1c1nc2ccc(Br)cc2o1 [Example 4, (R)-1-(4-(6-bromobenzo[d]oxazol-2-yl)-6,7-dihydro-1H-imidazo[4,5-c]pyridin-5(4H)-yl)-2-cyclopropylethanone] | ≥ 5000
Cc1ccc2oc([C@H]3c4nc[nH]c4CCN3C(=O)c3nnc(-c4ccn(C(F)F)n4)o3)nc2c1 [Example 696, (R)-(5-(1-(difluoromethyl)-1H-pyrazol-3-yl)-1,3,4-oxadiazol-2-yl)(4-(5-methylbenzo[d]oxazol-2-yl)-6,7-dihydro-1H-imidazo[4,5-c]pyridin-5(4H)-yl)methanone] | 1000 to 5000
Cc1nc(C(=O)N2CCc3[nH]cnc3[C@@H]2c2nc3c(C)cccc3o2)n(C)n1 [Example 820, (R)-(1,3-dimethyl-1H-1,2,4-triazol-5-yl)(4-(4-methylbenzo[d]oxazol-2-yl)-6,7-dihydro-1H-imidazo[4,5-c]pyridin-5(4H)-yl)methanone] | ≥ 5000
O=C(c1ocnc1C(F)F)N1CCc2[nH]cnc2[C@@H]1c1nc2cc(F)cc(F)c2o1 [Example 310, (R)-(4-(5,7-difluorobenzo[d]oxazol-2-yl)-6,7-dihydro-1H-imidazo[4,5-c]pyridin-5(4H)-yl)(4-(difluoromethyl)oxazol-5-yl)methanone] | 500 to 1000
O=C(c1oc(-c2ccccn2)nc1C(F)F)N1CCc2[nH]cnc2[C@@H]1c1nc2ccccc2o1 [Example 739, (R)-(4-(benzo[d]oxazol-2-yl)-6,7-dihydro-1H-imidazo[4,5-c]pyridin-5(4H)-yl)(4-(difluoromethyl)-2-(pyridin-2-yl)oxazol-5-yl)methanone] | 500 to 1000
Cn1cncc1-c1nc(C(F)F)c(C(=O)N2CCc3[nH]cnc3[C@@H]2c2nc3ccccc3o2)o1 [Example 763, (R)-(4-(benzo[d]oxazol-2-yl)-6,7-dihydro-1H-imidazo[4,5-c]pyridin-5(4H)-yl)(4-(difluoromethyl)-2-(1-methyl-1H-imidazol-5-yl)oxazol-5-yl)methanone] | 1000 to 5000

The next lines start with the values.

AC50 [nM] | Structure (SMILES)
500 to 1000 | O=C(c1nnc(-c2ccccn2)o1)N1CCc2[nH]cnc2[C@H]1c1nc2cc(F)cc(F)c2o1 [Example 580, (S)-(4-(5,7-difluorobenzo[d]oxazol-2-yl)-6,7-dihydro-1H-imidazo[4,5-c]pyridin-5(4H)-yl)(5-(pyridin-2-yl)-1,3,4-oxadiazol-2-yl)methanone]
≤ 500 | O=C(c1nnc(-c2ccn(C(F)F)n2)o1)N1CCc2[nH]cnc2[C@@H]1c1nc2c(F)ccc(F)c2o1 [Example 816, (R)-(4-(4,7-difluorobenzo[d]oxazol-2-yl)-6,7-dihydro-1H-imidazo[4,5-c]pyridin-5(4H)-yl)(5-(1-(difluoromethyl)-1H-pyrazol-3-yl)-1,3,4-oxadiazol-2-yl)methanone]
1000 to 5000 | O=C(c1nnc(-c2ccccn2)o1)N1CCc2[nH]cnc2[C@@H]1c1nc2ccc(F)cc2o1 [Example 304, (R)-(4-(6-fluorobenzo[d]oxazol-2-yl)-6,7-dihydro-1H-imidazo[4,5-c]pyridin-5(4H)-yl)(5-(pyridin-2-yl)-1,3,4-oxadiazol-2-yl)methanone]
1000 to 5000 | O=C(c1nnc(-c2ccccn2)o1)N1CCc2[nH]cnc2[C@@H]1c1nc2ccc(F)c(F)c2o1 [Example 545, (R)-(4-(6,7-difluorobenzo[d]oxazol-2-yl)-6,7-dihydro-1H-imidazo[4,5-c]pyridin-5(4H)-yl)(5-(pyridin-2-yl)-1,3,4-oxadiazol-2-yl)methanone]

Same assay, conditions: A375 cells expressing R408W PAH; 24 hrs with compound, then 20 μM sepiapterin and 800 μM 13C9,15N-Phenylalanine for 4 hours; 13C-Tyrosine by LC-MS; average where tested multiple times

Structure (SMILES) | AC50 [nM]
Cc1nc(C(=O)N2CCc3[nH]cnc3C2c2nc3c(F)ccc(F)c3o2)n(C)n1 (stereo not shown) | 1000 to 5000
O=C(c1cnco1)N1CCc2[nH]cnc2C1c1nc2ccc(Br)cc2o1 (stereo not shown) | ≥ 5000
Cn1nc(C(C)(C)O)nc1C(=O)N1CCc2[nH]cnc2C1c1nc2cccc(F)c2o1 (stereo not shown) | ≥ 5000
O=C(c1nnc(-c2c[nH]nc2C(F)(F)F)o1)N1CCc2[nH]cnc2C1c1nc2cc(F)ccc2o1 (stereo not shown) | ≥ 5000
Cc1n[nH]cc1-c1nnc(C(=O)N2CCc3[nH]cnc3C2c2nc3cc(F)ccc3o2)o1 (stereo not shown) | 1000 to 5000
Cc1nc(-c2cnn(C)c2)oc1C(=O)N1CCc2[nH]cnc2C1c1nc2cc(F)ccc2o1 (stereo not shown) | ≥ 5000
